In the NIST ThermoML archive (doi:10.1016/j.jct.2010.12.021):
Where “and” joins values, the source holds several entries; their conditions need not be identical. Equal entries are not always repeated. Numbers after ± are expanded uncertainties.

Test: molar heat capacity at constant pressure
Settings: 101.33 kPa, Crystal, Small sample (50 mg) DSC

CCCCCC[n+]1cccc2ccccc21.O=S(=O)([N-]S(=O)(=O)C(F)(F)F)C(F)(F)F [1-hexylquinolinium bis(trifluoromethylsulfonyl)amide]
Settings	molar heat capacity at constant pressure
203.04 K	300.57 ± 30 J/K/mol [middle of 4 runs]
203.05 K	300.39 ± 30 J/K/mol and 306.52 ± 31 J/K/mol
203.06 K	305.88 ± 31 J/K/mol
203.08 K	302.69 ± 31 J/K/mol
203.13 K	298.95 ± 30 J/K/mol
203.21 K	298.13 ± 30 J/K/mol
203.35 K	295.39 ± 30 J/K/mol
203.56 K	285.68 ± 29 J/K/mol
203.85 K	280.12 ± 28 J/K/mol
204.22 K	282.02 ± 28 J/K/mol
204.66 K	288.24 ± 29 J/K/mol
205.16 K	293.91 ± 30 J/K/mol
205.7 K	295.33 ± 30 J/K/mol
206.26 K	301.86 ± 31 J/K/mol
206.82 K	315.29 ± 32 J/K/mol
207.36 K	320.59 ± 32 J/K/mol
207.9 K	319.02 ± 32 J/K/mol
208.43 K	317.61 ± 32 J/K/mol
208.95 K	317.22 ± 32 J/K/mol
209.48 K	316.74 ± 32 J/K/mol
210.02 K	313.5 ± 32 J/K/mol
210.58 K	310.53 ± 31 J/K/mol
211.15 K	311.06 ± 31 J/K/mol
211.74 K	311.71 ± 31 J/K/mol
212.32 K	311.41 ± 31 J/K/mol
212.92 K	311.93 ± 32 J/K/mol
213.51 K	313.38 ± 32 J/K/mol
214.11 K	314.64 ± 32 J/K/mol
214.7 K	315.47 ± 32 J/K/mol
215.3 K	316.35 ± 32 J/K/mol
215.9 K	317.1 ± 32 J/K/mol
216.5 K	317.71 ± 32 J/K/mol
217.1 K	318.5 ± 32 J/K/mol
217.7 K	319.34 ± 32 J/K/mol
218.3 K	320.14 ± 32 J/K/mol
218.9 K	320.94 ± 32 J/K/mol
219.5 K	321.78 ± 32 J/K/mol
220.1 K	322.65 ± 33 J/K/mol
220.7 K	323.47 ± 33 J/K/mol
221.3 K	324.32 ± 33 J/K/mol
221.9 K	325.15 ± 33 J/K/mol
222.5 K	325.93 ± 33 J/K/mol
223.1 K	326.77 ± 33 J/K/mol
223.7 K	327.6 ± 33 J/K/mol
224.3 K	328.43 ± 33 J/K/mol
224.9 K	329.26 ± 33 J/K/mol
225.5 K	330.08 ± 33 J/K/mol
226.1 K	330.9 ± 33 J/K/mol
226.7 K	331.78 ± 34 J/K/mol
227.3 K	332.65 ± 34 J/K/mol
227.9 K	333.52 ± 34 J/K/mol
228.5 K	334.39 ± 34 J/K/mol
229.1 K	335.29 ± 34 J/K/mol
229.7 K	336.19 ± 34 J/K/mol
230.3 K	337.06 ± 34 J/K/mol
230.9 K	337.92 ± 34 J/K/mol
231.5 K	338.75 ± 34 J/K/mol
232.1 K	339.57 ± 34 J/K/mol
232.7 K	340.41 ± 34 J/K/mol
233.3 K	341.25 ± 34 J/K/mol
233.9 K	342.13 ± 35 J/K/mol
234.5 K	343.04 ± 35 J/K/mol
235.11 K	343.9 ± 35 J/K/mol
235.71 K	344.83 ± 35 J/K/mol
236.31 K	345.73 ± 35 J/K/mol
236.91 K	346.55 ± 35 J/K/mol
237.51 K	347.39 ± 35 J/K/mol
238.11 K	348.22 ± 35 J/K/mol
238.71 K	348.99 ± 35 J/K/mol
239.31 K	349.79 ± 35 J/K/mol
239.91 K	350.56 ± 35 J/K/mol
240.51 K	351.35 ± 35 J/K/mol
241.11 K	352.21 ± 36 J/K/mol
241.71 K	353.05 ± 36 J/K/mol
242.31 K	353.86 ± 36 J/K/mol
242.91 K	354.74 ± 36 J/K/mol
243.51 K	355.63 ± 36 J/K/mol
244.11 K	356.56 ± 36 J/K/mol
244.71 K	357.47 ± 36 J/K/mol
245.31 K	358.35 ± 36 J/K/mol
245.91 K	359.26 ± 36 J/K/mol
246.51 K	360.13 ± 36 J/K/mol
247.11 K	360.95 ± 36 J/K/mol
247.71 K	361.75 ± 37 J/K/mol
248.31 K	362.5 ± 37 J/K/mol
248.91 K	363.25 ± 37 J/K/mol
249.51 K	363.98 ± 37 J/K/mol
250.11 K	364.75 ± 37 J/K/mol
250.71 K	365.53 ± 37 J/K/mol
251.31 K	366.32 ± 37 J/K/mol
251.91 K	367.13 ± 37 J/K/mol
252.51 K	367.96 ± 37 J/K/mol
253.11 K	368.8 ± 37 J/K/mol
253.71 K	369.64 ± 37 J/K/mol
254.31 K	370.52 ± 37 J/K/mol
254.91 K	371.43 ± 38 J/K/mol
255.51 K	372.34 ± 38 J/K/mol
256.11 K	373.31 ± 38 J/K/mol
256.71 K	374.34 ± 38 J/K/mol
257.31 K	375.35 ± 38 J/K/mol
257.91 K	376.38 ± 38 J/K/mol
258.51 K	377.4 ± 38 J/K/mol
259.11 K	378.39 ± 38 J/K/mol
259.71 K	379.39 ± 38 J/K/mol
260.31 K	380.35 ± 38 J/K/mol
260.91 K	381.29 ± 39 J/K/mol
261.51 K	382.27 ± 39 J/K/mol
262.11 K	383.27 ± 39 J/K/mol
262.71 K	384.28 ± 39 J/K/mol
263.31 K	385.29 ± 39 J/K/mol
263.91 K	386.31 ± 39 J/K/mol
264.51 K	387.3 ± 39 J/K/mol
265.11 K	388.31 ± 39 J/K/mol
265.71 K	389.33 ± 39 J/K/mol
266.32 K	390.32 ± 39 J/K/mol
266.92 K	391.31 ± 40 J/K/mol
267.52 K	392.31 ± 40 J/K/mol
268.12 K	393.27 ± 40 J/K/mol
268.72 K	394.25 ± 40 J/K/mol
269.32 K	395.21 ± 40 J/K/mol
269.92 K	396.11 ± 40 J/K/mol
270.52 K	397.07 ± 40 J/K/mol
271.12 K	398.06 ± 40 J/K/mol
271.72 K	399.04 ± 40 J/K/mol
272.32 K	400.09 ± 40 J/K/mol
272.92 K	401.2 ± 41 J/K/mol
273.52 K	402.31 ± 41 J/K/mol
274.12 K	403.5 ± 41 J/K/mol
274.72 K	404.68 ± 41 J/K/mol
275.32 K	405.86 ± 41 J/K/mol
275.92 K	407.08 ± 41 J/K/mol
276.52 K	408.31 ± 41 J/K/mol
277.12 K	409.49 ± 41 J/K/mol
277.72 K	410.7 ± 41 J/K/mol
278.32 K	411.89 ± 42 J/K/mol
278.92 K	413.04 ± 42 J/K/mol
279.52 K	414.18 ± 42 J/K/mol
280.12 K	415.29 ± 42 J/K/mol
280.72 K	416.38 ± 42 J/K/mol
281.32 K	417.47 ± 42 J/K/mol
281.92 K	418.55 ± 42 J/K/mol
282.52 K	419.65 ± 42 J/K/mol
